The source made the active and inactive calls. The rule behind the calls is not given here.
What was measured:
[1] = tested on: Aorta; assay: Inhibition of micro-vessel branching in […] mouse aorta cultured in collagen gels assessed as reduction in aortic ring sprouting at 7.5 uM by aortic ring sprouting assay; type: functional, tissue-based
[2] = tested on: Aorta; assay: Inhibition of micro-vessel branching in […] mouse aorta cultured in collagen gels assessed as reduction in initial sprouting at 7.5 uM by aortic ring sprouting assay; type: functional, tissue-based
[3] = tested on: Aorta; assay: Inhibition of micro-vessel branching in […] mouse aorta cultured in collagen gels assessed as attenuation of branching at 7.5 uM by aortic ring sprouting assay; type: functional, tissue-based
[4] = target: T1, Protein phosphatase EYA2 (Homo sapiens) (UniProt O00167); assay: Inhibition of EYA2 (unknown origin) stably transfected in human MCF10A cells assessed as inhibition of cell migration at 7.5 uM by transwell assay; type: cell-based
T1 sequence (whole entry): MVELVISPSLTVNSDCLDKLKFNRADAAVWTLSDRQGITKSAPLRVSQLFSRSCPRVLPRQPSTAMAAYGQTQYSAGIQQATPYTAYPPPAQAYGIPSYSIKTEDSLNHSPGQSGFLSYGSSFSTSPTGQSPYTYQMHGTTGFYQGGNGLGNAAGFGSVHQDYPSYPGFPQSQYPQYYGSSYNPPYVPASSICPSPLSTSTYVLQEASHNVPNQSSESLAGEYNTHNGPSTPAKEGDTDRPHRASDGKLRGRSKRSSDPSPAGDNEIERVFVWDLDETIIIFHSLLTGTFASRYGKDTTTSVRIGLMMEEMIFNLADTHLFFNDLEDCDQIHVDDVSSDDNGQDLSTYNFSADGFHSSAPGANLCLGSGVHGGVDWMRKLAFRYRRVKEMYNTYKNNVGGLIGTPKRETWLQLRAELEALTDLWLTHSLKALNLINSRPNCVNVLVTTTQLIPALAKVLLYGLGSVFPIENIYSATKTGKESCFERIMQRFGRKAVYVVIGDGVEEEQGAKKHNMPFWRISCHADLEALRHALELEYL

[5] = organism: Danio rerio; assay: Induction of vasculature defects in 5.25 hpf stage FLK1-GFP transgenic Zebrafish embryos assessed as reduction in intersegmental vessel number and extension measured at 24 hpf stage by fluorescence microscopy; type: functional, organism-based
[6] = organism: Danio rerio; assay: Induction of vasculature defects in 5.25 hpf stage FLK1-GFP transgenic Zebrafish embryos assessed as reduction of intersegmental vessels at 0.25 uM measured at 24 hpf stage by fluorescence microscopy; type: functional, organism-based
[7] = organism: Danio rerio; assay: Induction of vasculature defects in 20 hpf stage FLK1-GFP transgenic Zebrafish embryos measured at 24 hpf stage by fluorescence microscopy; type: functional, organism-based
[8] = organism: Danio rerio; assay: Induction of general morphology changes in 20 hpf stage FLK1-GFP transgenic Zebrafish embryos measured at 24 hpf stage by fluorescence microscopy; type: functional, organism-based
[9] = tested on: HUVEC; assay: Inhibition of cell proliferation of HUVEC incubated for 3 days by WST8 dye based assay relative to control; type: functional; details: for inhibition: Homo sapiens
[10] = target: T2, Protein phosphatase EYA3 (Homo sapiens) (UniProt Q99504); details: 3 to 10 uM
T2 sequence (whole entry): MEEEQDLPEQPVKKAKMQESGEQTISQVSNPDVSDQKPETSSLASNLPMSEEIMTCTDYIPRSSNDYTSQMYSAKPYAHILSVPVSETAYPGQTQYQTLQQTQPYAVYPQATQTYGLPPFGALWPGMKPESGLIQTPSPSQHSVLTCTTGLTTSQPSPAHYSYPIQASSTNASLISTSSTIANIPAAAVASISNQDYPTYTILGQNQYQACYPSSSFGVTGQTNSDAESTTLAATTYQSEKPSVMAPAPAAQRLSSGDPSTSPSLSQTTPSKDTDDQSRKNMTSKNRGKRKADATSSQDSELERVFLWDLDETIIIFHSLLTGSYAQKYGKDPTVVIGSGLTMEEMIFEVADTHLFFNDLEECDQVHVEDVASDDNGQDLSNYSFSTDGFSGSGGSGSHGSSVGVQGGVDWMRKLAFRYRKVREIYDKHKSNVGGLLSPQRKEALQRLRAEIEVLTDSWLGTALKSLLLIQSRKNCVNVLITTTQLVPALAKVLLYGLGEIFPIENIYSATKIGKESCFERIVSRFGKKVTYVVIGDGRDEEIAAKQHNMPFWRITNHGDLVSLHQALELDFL
Description: Competitive inhibition of poly-histidine and GST-tagged full length human Eya3 isoform 2 (127 to 573 residues) at 3 to 10 uM using para-nitrophenol phosphate substrate incubated for 30 mins

[11] = target: T2, Protein phosphatase EYA3 (Homo sapiens); details: 5 to 10 uM
Description: Inhibition of poly-histidine and GST-tagged full length human Eya3 isoform 2 (127 to 573 residues) assessed as reduction in Vmax at 5 to 10 uM using para-nitrophenol phosphate substrate incubated for 30 mins

[12] = target: T2, Protein phosphatase EYA3 (Homo sapiens); details: 5 to 10 uM; remark: listed apart in the source
Description: Inhibition of poly-histidine and GST-tagged full length human Eya3 isoform 2 (127 to 573 residues) assessed as reduction in Km at 5 to 10 uM using para-nitrophenol phosphate substrate incubated for 30 mins

For CCCCc1oc2ccccc2c1C(=O)c1cc(I)c(O)c(I)c1, the inhibition [1] was “Dose-dependent effect”, the inhibition [2] was “Dose-dependent effect” and the inhibition [3] was “Dose-dependent effect”.
In the case of CCCCc1oc2ccccc2c1C(=O)c1ccc(O)cc1, the inhibition [4] is reported as “Active”, the Activity [5] is reported as “Dose-dependent effect” and the Activity [6] is reported as “inactive”. The Activity [7] was “inactive” and the Activity [8] was “inactive”.
CCc1oc2ccccc2c1C(=O)c1ccc(O)cc1 was tested, and the inhibition [4] was “Active”, the inhibition [9] was “inactive” and the Activity [5] was “Dose-dependent effect”. The Activity [6] was “inactive”, the Activity [7] was “inactive” and the Activity [8] was “inactive”.
CCc1oc2ccc(O)cc2c1C(=O)c1cc(Br)c(O)c(Br)c1 was tested, and the inhibition [1] was “Dose-dependent effect”, the inhibition [2] was “Dose-dependent effect” and the inhibition [3] was “Dose-dependent effect”.
CC(O)c1oc2ccccc2c1C(=O)c1cc(Br)c(O)c(Br)c1 (configuration not stated) was tested, and the inhibition [1] was “Dose-dependent effect”, the inhibition [2] was “Dose-dependent effect” and the inhibition [3] was “Dose-dependent effect”.
Cc1oc2ccccc2c1C(=O)c1ccc(O)c(I)c1 was tested, and the inhibition [1] was “Dose-dependent effect”, the inhibition [2] was “Dose-dependent effect” and the inhibition [3] was “Dose-dependent effect”.
CCc1oc2ccccc2c1C(=O)c1cc(Br)c(O)c(Br)c1 was tested, and the inhibition [4] was “Active”, the inhibition [9] was “inactive” and the Activity [5] was “Dose-dependent effect”. The Activity [6] was “Active”, the Activity [7] was “inactive” and the Activity [8] was “inactive”. For the same compound, the inhibition [10] was “inactive”, the inhibition [11] was “Active” and the inhibition [12] was “Active”.
CCc1oc2cc(O)ccc2c1C(=O)c1cc(Br)c(O)c(Br)c1 was tested, and the “inhibition (INH)” value [9] was over 50%, the inhibition [1] was “Dose-dependent effect” and the inhibition [2] was “Dose-dependent effect”. For the same compound, the inhibition [3] was “Dose-dependent effect”.
CC(O)CCc1oc2ccccc2c1C(=O)c1cc(I)c(O)c(I)c1 (configuration not stated) was tested, and the inhibition [1] was “inactive”, the inhibition [2] was “inactive” and the inhibition [3] was “inactive”.
Cc1oc2ccccc2c1C(=O)c1cc(I)c(O)c(I)c1 was tested, and the inhibition [1] was “Dose-dependent effect”, the inhibition [2] was “Dose-dependent effect” and the inhibition [3] was “Dose-dependent effect”.
